US8865731B2, “Inhibitor of analgesic tolerance” (Kyowa Hakko Kirin Co., Ltd., priority 2008, dated 2014)

System: Male ddY mice
Test: Suppressing activity on morphine analgesic tolerance (hot plate method, response latency)
Format: in vivo
Settings: for ΔChange (Latency at each time point − Pre value) 0.5 h / ΔChange (Latency at each time point − Pre value) 1 h / ΔChange (Latency at each time point − Pre value) 2 h: Table 3; for ΔChange (Latency at each time point − Pre value) 0.5 h: day 7, 0.5 h; for ΔChange (Latency at each time point − Pre value) 1 h: day 7, 1 h; for ΔChange (Latency at each time point − Pre value) 2 h: day 7, 2 h; for development of analgesic tolerance (response latency) / effect on the response latency: Test Example 4; for development of analgesic tolerance (response latency): compound 10 mg/kg p.o. 30 min before each morphine 6 mg/kg s.c.
Description: (§1) Food and water were provided ad libitum.
(§2) Morphine was dissolved in physiological saline at a concentration of 0.6 mg/mL and subcutaneously administered at a dose of 6 mg/kg.
as §1, §2
The effect of Compounds (IC) and (ID) on morphine analgesic tolerance was studied. The experiment was performed in the same manner as in Test Example 3. Compounds (IC) and (ID) were used at a dose of 10 mg/kg, respectively.

[1] = compound 10 mg/kg p.o. repeatedly administered alone
[2] = repeated combination group: compound 10 mg/kg p.o. 30 min before each morphine 6 mg/kg s.c., 7 days

Q: With CCn1c(=O)c2c(nc(/C=C/c3cc(OC)c(OC)c(OC)c3)n2C)n(CC)c1=O [Compound (IC)] as the compound, how does the “ΔChange (Latency at each time point − Pre value) 0.5 h” value [1] read?
A: Its value is 1.0 ± 0.7 s.

Q: What about the “ΔChange (Latency at each time point − Pre value) 1 h” value [1] of the same compound?
A: Its value is 3.3 ± 1.2 s.

Q: And the “ΔChange (Latency at each time point − Pre value) 2 h” value [1]?
A: The value was 1.7 ± 0.7 s.

Q: What about the “ΔChange (Latency at each time point − Pre value) 0.5 h” value [2] of the same compound?
A: Its value is 16.0 ± 1.8 s.

Q: What about the “ΔChange (Latency at each time point − Pre value) 1 h” value [2] of the same compound?
A: The value was 5.1 ± 1.7 s.

Q: And the “ΔChange (Latency at each time point − Pre value) 2 h” value [2]?
A: The value was 0.9 ± 1.3 s.

Q: What about the “development of analgesic tolerance (response latency)” value (7 days) of the same compound?
A: Its value is “the development of analgesic tolerance was prevented”.

Q: What about the “effect on the response latency” value [1] of the same compound?
A: Its value is “the effect on the response latency was not observed”.

Q: With COc1ccc(/C=C/c2nc3c(c(=O)n(C)c(=O)n3C)n2C)cc1OC [Compound (ID)] as the compound, how does the “ΔChange (Latency at each time point − Pre value) 0.5 h” value [1] read?
A: The value was 2.1 ± 0.8 s.

Q: What about the “ΔChange (Latency at each time point − Pre value) 1 h” value [1] of the same compound?
A: The value was 2.3 ± 1.3 s.

Q: What about the “ΔChange (Latency at each time point − Pre value) 2 h” value [1] of the same compound?
A: The value was 2.5 ± 0.9 s.

Q: What about the “ΔChange (Latency at each time point − Pre value) 0.5 h” value [2] of the same compound?
A: Its value is 14.3 ± 1.7 s.

Q: What about the “ΔChange (Latency at each time point − Pre value) 1 h” value [2] of the same compound?
A: The value was 5.1 ± 1.3 s.

Q: What about the “ΔChange (Latency at each time point − Pre value) 2 h” value [2] of the same compound?
A: Its value is -0.1 ± 1.4 s.

Q: And the “development of analgesic tolerance (response latency)” value (7 days)?
A: Its value is “the development of analgesic tolerance was prevented”.

Q: And the “effect on the response latency” value [1]?
A: Its value is “the effect on the response latency was not observed”.
